# Counter-ions that a name gives are not always drawn. Like-named read-outs stand apart in the source and are kept apart here.
# Key:
# Assay type in all cases: biochemical
# [1] = biological target: T1, human LSD1(171-852) (Homo sapiens, UniProt O60341); assay: Measurement of LSD1 inhibitory activity (time-resolved fluorescence, biotin-histone H3 mono methylated K4 peptide)
# T1 construct: to give hLSD1(171-852) purified product; made in house; host or cells: Escherichia coli C43(DE3) pLysS
# [2] = biological target: T2, MAO-B (Homo sapiens, UniProt P27338); assay: Measurement of MAO-B inhibitory activity (MAO-Glo Assay)
# T2 construct: purchased Sigma-Aldrich Co. LLC
# T2 sequence (P27338 1-520): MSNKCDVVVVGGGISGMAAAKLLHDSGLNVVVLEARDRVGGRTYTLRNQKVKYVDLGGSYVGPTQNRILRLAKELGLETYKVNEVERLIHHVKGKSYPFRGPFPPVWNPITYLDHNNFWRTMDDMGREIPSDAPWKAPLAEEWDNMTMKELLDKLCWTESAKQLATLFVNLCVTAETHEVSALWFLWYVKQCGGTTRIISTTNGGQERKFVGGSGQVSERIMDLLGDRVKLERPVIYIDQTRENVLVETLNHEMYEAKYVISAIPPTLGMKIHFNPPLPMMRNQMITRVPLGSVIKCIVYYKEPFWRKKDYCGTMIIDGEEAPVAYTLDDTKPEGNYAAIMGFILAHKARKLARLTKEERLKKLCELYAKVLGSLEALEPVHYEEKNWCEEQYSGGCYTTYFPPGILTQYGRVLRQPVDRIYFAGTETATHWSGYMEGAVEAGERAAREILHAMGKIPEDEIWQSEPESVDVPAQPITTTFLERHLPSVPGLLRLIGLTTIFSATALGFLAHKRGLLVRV
# In short: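 Percent inhibition was calculated from luciferin-based luminescence, corrected with a blank lacking enzyme and a control lacking compound. The reaction ran 60 min at room temperature after adding MAO substrate (16 µM as added). This followed a 10 min compound–enzyme preincubation in HEPES pH 7.5 buffer.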
# [3] = biological target: T3, MAO-A (Homo sapiens, UniProt P21397); assay: Measurement of MAO-A inhibitory activity (MAO-Glo Assay)
# T3 construct: purchased Sigma-Aldrich Co. LLC
# T3 sequence (P21397 1-527): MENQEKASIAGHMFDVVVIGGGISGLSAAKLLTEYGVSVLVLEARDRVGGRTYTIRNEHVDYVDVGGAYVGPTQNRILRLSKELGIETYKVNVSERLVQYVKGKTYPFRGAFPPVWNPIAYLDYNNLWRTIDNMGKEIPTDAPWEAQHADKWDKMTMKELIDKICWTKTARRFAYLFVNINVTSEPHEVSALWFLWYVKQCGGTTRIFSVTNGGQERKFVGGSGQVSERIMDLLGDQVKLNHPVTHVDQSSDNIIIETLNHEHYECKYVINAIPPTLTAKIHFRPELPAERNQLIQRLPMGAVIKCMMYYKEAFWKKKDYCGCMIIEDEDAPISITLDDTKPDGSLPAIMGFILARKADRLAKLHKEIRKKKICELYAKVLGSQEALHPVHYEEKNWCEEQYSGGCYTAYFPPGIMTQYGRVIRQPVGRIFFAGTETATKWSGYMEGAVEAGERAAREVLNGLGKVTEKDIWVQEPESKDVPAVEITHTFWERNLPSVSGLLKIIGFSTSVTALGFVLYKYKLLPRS
# In short: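 Luminescent MAO-Glo read-out: % inhibition computed from counts relative to enzyme-only control and enzyme-free blank. Compound and 400 ng MAO-A in HEPES pH 7.5 with 5% glycerol stood 10 min at room temperature before MAO substrate (160 μM stock) started a 60 min reaction.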
Structure (SMILES),IC50 ([1]; read-out: LSD1 IC50 value) [µM],IC50 [2] [µM],IC50 [3] [µM],IC50 [1] [µM]
"O=C(Nc1ccc([C@@H]2C[C@H]2NCC2CC2)cc1)c1ccc(C(F)(F)F)cc1 (relative stereo) [Example 69, N-(4-{trans-2-[(cyclopropylmethyl)amino]cyclopropyl}phenyl)-4-(trifluoromethyl)benzamide hydrochloride]",< 0.1,> 10,> 10,
"O=C(Nc1ccc([C@@H]2C[C@H]2NCC2CC2)cc1)c1ccc2c(c1)CCCC2 (relative stereo) [Example 85, N-(4-{trans-2-[(cyclopropylmethyl)amino]cyclopropyl}-phenyl)-5,6,7,8-tetrahydronaphtha-lene-2-carboxamide]",< 0.1,4.9,9.1,
"O=C(Nc1ccc([C@@H]2C[C@H]2NCc2ccccc2F)cc1)c1cccc(C(F)(F)F)c1 (relative stereo) [Example 67, N-(4-{trans-2-[(2-fluorobenzyl)amino]cyclopropyl}phenyl)-3-(trifluoromethyl)benzamide hydrochloride]",< 0.1,> 10,> 10,
"CS(=O)(=O)Nc1ccc(C(=O)Nc2ccc([C@@H]3C[C@H]3NCC3CC3)cc2)cc1 (relative stereo) [Example 135, N-(4-{trans-2-[(cyclopropylmethyl)amino]cyclopropyl}phenyl)-4-[(methylsulfonyl)amino]benzamide hydrochloride]",0.1,> 10,> 10,
"Cc1ccc(C)c(C(=O)Nc2ccc([C@@H]3C[C@H]3NCC3CC3)cc2)c1 (relative stereo) [Example 106, N-(4-{trans-2-[(cyclopropylmethyl)amino]cyclopropyl}phenyl)-2,5-dimethylbenzamide hydrochloride]",< 0.1,> 10,> 10,
"O=C(Nc1ccc([C@@H]2C[C@H]2NCC2CC2)cc1)c1ccc(-c2cc[nH]n2)cc1 (relative stereo) [Example 113, N-(4-{trans-2-[(cyclopropylmethyl)amino]cyclopropyl}phenyl)-4-(1H-pyrazol-3-yl)benzamide hydrochloride]",< 0.1,> 10,5.7,
"CN(C)c1ccccc1CN[C@@H]1C[C@H]1c1ccc(NC(=O)c2cccc(C(F)(F)F)c2)cc1 (relative stereo) [Example 142, N-{4-[trans-2-{[2-(dimethylamino)benzyl]amino}cyclopropyl]phenyl}-3-(trifluoromethyl)benzamide hydrochloride]",0.1,> 10,> 10,
"CN1CCC(CN[C@@H]2C[C@H]2c2ccc(NC(=O)c3cccc(C(F)(F)F)c3)cc2)CC1 (relative stereo) [Example 155, N-{4-[trans-2-{[(1-methylpiperidin-4-yl)methyl]amino}cyclopropyl]phenyl}-3-(trifluoromethyl)benzamide dihydrochloride]",< 0.1,> 10,> 10,
"O=C(Nc1ccc([C@@H]2C[C@H]2NCc2cscn2)cc1)c1cccc(C(F)(F)F)c1 (relative stereo) [Example 72, N-(4-{trans-2-[(1,3-thiazol-4-ylmethyl)amino]cyclopropyl}phenyl)-3-(trifluoromethyl)benzamide dihydrochloride]",< 0.1,> 10,3.1,
"O=C(Nc1ccc([C@@H]2C[C@H]2NCc2ccc3c(c2)OCO3)cc1)c1ccc(-c2ccccc2)cc1 (relative stereo) [Example 42, N-(4-{trans-2-[(1,3-benzodioxol-5-ylmethyl)amino]-cyclopropyl}-phenyl)biphenyl-4-carboxamide]",< 0.1,> 10,> 10,
"CN(C)c1ccc(CN[C@@H]2C[C@H]2c2ccc(NC(=O)c3cccc(C(F)(F)F)c3)cc2)cc1 (relative stereo) [Example 110, N-[4-(trans-2-{[4-(dimethylamino)benzyl]amino)cyclopropyl}phenyl]-3-(trifluoromethyl)benzamide dihydrochloride]",< 0.1,> 10,> 10,
"CN1C2CCC1CC(N[C@@H]1C[C@H]1c1ccc(NC(=O)c3cccc(C(F)(F)F)c3)cc1)C2 (relative stereo) [Example 149, N-(4-{trans-2-[(8-methyl-8-azabicyclo[3.2.1]oct-3-yl)amino]cyclopropyl}phenyl)-3-(trifluoromethyl)benzamide dihydrochloride]",,> 10,> 10,< 0.1
"O=C(Nc1ccc([C@@H]2C[C@H]2NCC2CC2)cc1)c1ccc(-n2cccn2)cc1 (relative stereo) [Example 94, N-(4-{trans-2-[(cyclopropylmethyl)-amino]cyclopropyl}-phenyl)-4-(1H-pyrazol-1-yl)benzamide]",< 0.1,> 10,> 10,
"O=C(Nc1ccc([C@@H]2C[C@H]2NCCOCc2ccccc2)cc1)c1ccc(-c2ccccc2)cc1 (relative stereo) [Example 52, N-{4-[trans-2-{[2-(benzyloxy)ethyl]-amino}cyclopropyl]-phenyl}biphenyl-4-carboxamide]",0.16,> 10,> 10,
"O=C(Nc1ccc([C@@H]2C[C@H]2NC2CCS(=O)(=O)CC2)cc1)c1cccc(C(F)(F)F)c1 (relative stereo) [Example 151, N-(4-{trans-2-[(1,1-dioxidotetrahydro-2H-thiopyran-4-yl)amino]cyclopropyl}phenyl)-3-(trifluoromethyl)benzamide hydrochloride]",< 0.1,> 10,> 10,
"O=C(Nc1ccc([C@@H]2C[C@H]2NCC2CC2)cc1)c1ccc(-c2cccnc2)cc1 (relative stereo) [Example 132, N-(4-{trans-2-[(cyclopropyl-methyl)amino]-cyclopropyl}-phenyl)-4-(pyridin-3-yl)benzamide]",< 0.1,> 10,8.3,
"O=C(Nc1ccc([C@@H]2C[C@H]2NCC2CC2)cc1)c1ccc(-n2cccc2)cc1 (relative stereo) [Example 117, N-(4-{trans-2-[(cyclopropylmethyl)amino]cyclopropyl}-phenyl)-4-(1H-pyrrol-1-yl)benzamide]",< 0.1,> 10,7.5,
"O=C(Nc1ccc([C@@H]2C[C@H]2NCc2ccccc2)cc1)c1cccc(NCc2ccccc2)c1 (relative stereo) [Example 29, 3-(benzylamino)-N-{4-[trans-2-(benzylamino)cyclopropyl]phenyl}benzamide]",0.11,> 10,5.2,
"CN(C)c1cccc(C(=O)Nc2ccc([C@@H]3C[C@H]3NCC3CC3)cc2)c1 (relative stereo) [Example 83, N-(4-{trans-2-[(cyclopropylmethyl)amino]cyclopropyl}phenyl)-3-(dimethylamino)benzamide bis(trifluoroacetate)]",< 0.1,> 10,> 10,
"O=C(Nc1ccc([C@@H]2C[C@H]2NC2CCN(Cc3ccccc3)CC2)cc1)c1cccc(C(F)(F)F)c1 (relative stereo) [Example 74, N-(4-{trans-2-[(1-benzylpiperidin-4-yl)amino]cyclopropyl}phenyl)-3-(trifluoromethyl)benzamide dihydrochloride]",< 0.1,> 10,> 10,
